Measured values as given in patent publication US8778966B2, “Quinolinone derivatives as PARP and tank inhibitors” (Janssen Pharmaceutica, NV, priority 2007, dated 2014).

Columns and labels:
[1] = target: T1, TANK-2 enzyme (Homo sapiens, UniProt Q9H2K2); test: In vitro Scintillation Proximity Assay (SPA) for TANK-2 inhibitory activity; format: biochemical; settings: read-out: in vitro SPA assay TANK-2 pIC50 (converted)
T1 construct: made in house
T1 sequence (Q9H2K2 1-1166): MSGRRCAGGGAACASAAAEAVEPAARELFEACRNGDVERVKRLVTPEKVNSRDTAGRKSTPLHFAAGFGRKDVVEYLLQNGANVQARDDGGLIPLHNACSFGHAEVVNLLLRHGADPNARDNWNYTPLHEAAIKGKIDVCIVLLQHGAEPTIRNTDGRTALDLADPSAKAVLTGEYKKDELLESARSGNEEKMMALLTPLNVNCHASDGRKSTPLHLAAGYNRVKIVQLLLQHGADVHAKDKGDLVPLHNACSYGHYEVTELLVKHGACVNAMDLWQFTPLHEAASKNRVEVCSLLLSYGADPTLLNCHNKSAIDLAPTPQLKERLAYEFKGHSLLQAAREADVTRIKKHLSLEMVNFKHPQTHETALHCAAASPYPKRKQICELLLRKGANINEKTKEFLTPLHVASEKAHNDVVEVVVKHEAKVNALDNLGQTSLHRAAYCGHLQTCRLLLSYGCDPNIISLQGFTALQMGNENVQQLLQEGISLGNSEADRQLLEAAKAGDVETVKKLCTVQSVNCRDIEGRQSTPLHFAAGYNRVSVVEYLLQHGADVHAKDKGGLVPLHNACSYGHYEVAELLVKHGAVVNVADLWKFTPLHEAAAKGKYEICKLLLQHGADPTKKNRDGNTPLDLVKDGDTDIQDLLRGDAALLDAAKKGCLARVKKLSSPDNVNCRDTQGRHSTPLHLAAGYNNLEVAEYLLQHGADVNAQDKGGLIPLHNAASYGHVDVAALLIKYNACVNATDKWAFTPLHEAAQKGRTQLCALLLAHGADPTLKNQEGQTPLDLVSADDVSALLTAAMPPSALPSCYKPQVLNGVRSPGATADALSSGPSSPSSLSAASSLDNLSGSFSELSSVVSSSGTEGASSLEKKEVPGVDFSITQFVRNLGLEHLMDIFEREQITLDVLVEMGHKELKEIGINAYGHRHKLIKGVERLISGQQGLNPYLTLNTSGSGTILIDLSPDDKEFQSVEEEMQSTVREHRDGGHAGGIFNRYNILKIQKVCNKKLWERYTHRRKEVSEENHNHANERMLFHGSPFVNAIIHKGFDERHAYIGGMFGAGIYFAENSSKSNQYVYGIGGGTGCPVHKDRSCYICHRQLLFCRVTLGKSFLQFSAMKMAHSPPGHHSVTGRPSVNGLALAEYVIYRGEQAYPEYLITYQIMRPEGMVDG
Procedure: Compounds of the present invention were tested in an in vitro assay based on SPA technology with Ni Flash plates (96 or 384 well). In principle, the assay relies upon SPA technology for the detection of auto-poly(ADP-ribosyl)ation of TANK-2 protein using [^3H]-nicotinamide adenine dinucleotide ([^3H]-NAD^+) as ADP-ribosyl donor.
A stock solution of 100 nM [3H]-NAD^+/NAD (0.1 mCi/ml, supplier: Perkin Elmer) and 0.25 μM NAD (Sigma) was made in assay buffer (60 mM Tris/HCl, pH 7.4; 0.9 mM DTT; 6 mM MgCl2). The TANK-2 enzyme was produced as described in EP1238063. 60 μl of assay buffer, together with 1 μl of compound in DMSO, 20 μl of [^3H]-NAD^+/NAD and 20 μl of TANK-2 enzyme (final concentration 8 μg/ml) was added per well into a 96-well Ni-coated flash plate (Perkin Elmer). After incubation of the mixture for 120 min. at room temperature, the reaction was terminated by adding 60 μl of stopsolution (42.6 mg NAD in 6 ml H2O). The plates were covered with a plate sealer and placed in a TopCountNXT™ (Packard) for scintillation counting. Values were expressed as counts per minute (cpm). For each experiment, controls (containing TANK-2 enzyme and DMSO without compound), a blank incubation (containing DMSO but no TANK-2 enzyme or compound) and samples (containing TANK-2 enzyme and compound dissolved in DMSO) were run in parallel. All compounds tested were dissolved and eventually further diluted in DMSO. In first instance, compounds were tested at a concentration of 10^−5M. […] In each test, the blank value was subtracted from both the control and the sample values. The control sample represented maximal TANK-2 enzyme activity. For each sample, the amount of cpm was expressed as a percentage of the mean cpm value of the controls. When appropriate, IC50-values (concentration of the drug, needed to reduce the TANK-2 enzyme activity to 50% of the control) were computed using linear interpolation between the experimental points just above and below the 50% level. Herein the effects of test compounds are expressed as pIC50 (the negative log value of the IC50-value). As reference compounds, 3-aminobenzamide and 4-amino-1,8-naphtalimide were included to validate the SPA assay. Herein the assay was described using 96-well plates. In the assay using 384-well plates the same final concentrations were used and volumes were adapted.

[2] = test system: PC3 cells; test: EB1 Comet (microtubule disruption) assay; format: cell-based, human; settings: Homo sapiens, PC-3, 1 h, 1 hour treatment, read-out: EB1 pLAC (converted)
Procedure: The Eb1 Comet assay relies on the detection of the Eb1 protein at the plus end of polymerizing microtubules (Mimori-Kiyosue, 2000) using indirect immunofluorescence. Disruption of microtubule dynamics through de-polymerization or stabilization results in a de-localization of Eb1 from the growing microtubule ends and this is visualized by the disappearance of Eb1 containing cytoplasmic foci.
Briefly, human prostate cancer PC3 cells obtained from the American Type Culture Collection were grown in 96-well plates (Greiner, cat. no. 655090) in HAM's F12 medium as recommended by the provider (ATCC). The cells were treated for 1 hour at 37° C. with compounds dissolved in DMSO (0.6% final DMSO concentration). The culture medium was then removed by aspiration and the cells were fixed by adding cold methanol (−20 C). After a 15 min. incubation at −20 C, the cells were washed twice with DPBS (Gibco) containing 0.5% Triton X-100. Mouse Eb1 antibody (BD Transduction Laboratories, cat. no. 610534) was added to the cells (1/250 dilution in DPBS containing 1% BSA) and incubated overnight at room temperature. The antibody was subsequently removed and the cells washed twice with DPBS, 0.5% Triton X-100. Secondary goat anti-mouse antibody conjugated to Alexa 488 fluorescent dye (Molecular Probes) was added at a 1/500 dilution in DPBS, 1% BSA and incubated for 1 hour at 37 C. The cells were washed twice with DPBS, 0.5% Triton X-100 and then DPBS containing 0.5% Triton X-100 and 1/5000 Hoechst 33342 (Molecular Probes) was added. Microscopy based Eb1 foci visualization was carried out using an IN Cell Analyser 1000 (Amersham Biosciences) using a 20× objective. Compound dependent microtubule disruption was visually determined by the disappearance in Eb1 foci. The lowest active concentration (LAC) was determined as the concentration where Eb1 foci were absent in at least 50% of the treated cells.

Structure (SMILES)	IC50 [1] [nM]	minimal effective concentration [2] [µM]
CCc1cc2ccc([C@@](C)(C#N)CCOc3ccccc3)cc2[nH]c1=O (single isomer, unassigned) [Compound 150]	200	
Cc1cc2ccc([C@@](C)(C#N)CCOc3ccccc3)cc2[nH]c1=O (single isomer, unassigned) [Compound 164]	631	0.316
CCc1cc2ccc(C(C)(C#N)Cc3cccc(NS(C)(=O)=O)c3)cc2[nH]c1=O (stereo not shown) [Compound 14]	79.4	
CCc1cc2ccc(C(C)(C#N)Cc3cccc(NC(=O)N4CCOCC4)c3)cc2[nH]c1=O (stereo not shown) [Compound 16]	79.4	
CCc1cc2ccc(C(C)(C#N)Cc3ccc(C(F)(F)F)cc3)cc2[nH]c1=O (stereo not shown) [Compound 108]	126	
CCc1cc2ccc(C(C)(C#N)Cc3cccc(OC(F)(F)F)c3)cc2[nH]c1=O (stereo not shown) [Compound 110]	126	0.1
CCc1cc2ccc(C(C)(C#N)Cc3cc(C(F)(F)F)cc(C(F)(F)F)c3)cc2[nH]c1=O (stereo not shown) [Compound 131]	1000	
CCc1cc2ccc(C(C)(C#N)CCOc3ccc(Cl)cc3)cc2[nH]c1=O (stereo not shown) [Compound 146]	158	
CCc1cc2ccc(C(C)(C#N)CCOc3ccccc3Cl)cc2[nH]c1=O (stereo not shown) [Compound 152]	126	
CCc1cc2ccc(C(C)(C#N)CCOc3ccccc3Br)cc2[nH]c1=O (stereo not shown) [Compound 153]	79.4	
CCc1cc2ccc(C(C)(C#N)CCOc3ccccc3C(C)=O)cc2[nH]c1=O (stereo not shown) [Compound 159]	251	
CCc1cc2ccc(C(C#N)(CCOc3ccccc3)C3CC3)cc2[nH]c1=O (stereo not shown) [Compound 166]	126	
CCc1cc2ccc(C(C)(C#N)CCOc3ccc(C(C)(C)C)cc3)cc2[nH]c1=O (stereo not shown) [Compound 167]	794	
Cc1cc2ccc([C@@](C)(C#N)[C@@H]3CCc4cc(C#N)ccc43)cc2[nH]c1=O [Compound 245]	1000	
CCc1cc2ccc(C(C#N)(CC)CCOc3ccc(C#N)cc3)cc2[nH]c1=O (stereo not shown) [Compound 271]	501	
Cc1cc2ccc([C@@](C)(C#N)[C@H]3CCc4cc(C#N)ccc43)cc2[nH]c1=O [Compound 389]	3160	

Now from value to compound, other results behind:

IC50 [1] [nM]	Structure (SMILES)	minimal effective concentration [2] [µM]
79.4	C#Cc1cccc(CC(C)(C#N)c2ccc3cc(CC)c(=O)[nH]c3c2)c1 (racemic) [Compound 168]	0.1
200	CCc1cc2ccc(C(C)(C#N)CC3COc4ccccc4O3)cc2[nH]c1=O (single isomer, unassigned) [Compound 48]	1
50.1	CCc1cc2ccc(C(C)(C#N)Cc3cccc(C(=O)O)c3)cc2[nH]c1=O (stereo not shown) [Compound 10]	
79.4	CCc1cc2ccc(C(C)(C#N)Cc3cccc(-c4nc(C)no4)c3)cc2[nH]c1=O (stereo not shown) [Compound 11]	1
100	CCc1cc2ccc(C(C)(C#N)Cc3cccc(C(=O)OC)c3)cc2[nH]c1=O (stereo not shown) [Compound 12]	0.0316
63.1	CCc1cc2ccc(C(C)(C#N)Cc3cccc(C(=O)NC)c3)cc2[nH]c1=O (stereo not shown) [Compound 13]	
100	CCc1cc2ccc(C(C)(C#N)Cc3cccc(N)c3)cc2[nH]c1=O (stereo not shown) [Compound 15]	3.16
63.1	CCc1cc2ccc(C(C)(C#N)Cc3ccccc3Br)cc2[nH]c1=O (stereo not shown) [Compound 104]	0.316
20	CCc1cc2ccc(C(C)(C#N)Cc3ccccc3C)cc2[nH]c1=O (stereo not shown) [Compound 105]	0.316
50.1	CCc1cc2ccc(C(C)(C#N)Cc3ccccc3F)cc2[nH]c1=O (stereo not shown) [Compound 106]	0.316
31.6	CCc1cc2ccc(C(C)(C#N)Cc3cccc(C)c3)cc2[nH]c1=O (stereo not shown) [Compound 107]	1
79.4	CCc1cc2ccc(C(C)(C#N)Cc3cccc(C(F)(F)F)c3)cc2[nH]c1=O (stereo not shown) [Compound 109]	3.16
31.6	CCc1cc2ccc(C(C)(C#N)Cc3ccc(C#N)cc3)cc2[nH]c1=O (stereo not shown) [Compound 111]	
31.6	CCc1cc2ccc(C(C)(C#N)Cc3ccc(F)cc3)cc2[nH]c1=O (stereo not shown) [Compound 115]	
25.1	CCc1cc2ccc(C(C)(C#N)Cc3ccc(C)cc3)cc2[nH]c1=O (stereo not shown) [Compound 117]	
200	CCc1cc2ccc(C(C)(C#N)Cc3cc(Br)cc(Br)c3)cc2[nH]c1=O (stereo not shown) [Compound 133]	
200	CCc1cc2ccc(C(C)(C#N)CCOc3ccc(C)cc3)cc2[nH]c1=O (stereo not shown) [Compound 149]	
126	CCc1cc2ccc(C(C)(C#N)CCOc3ccc(SC)cc3)cc2[nH]c1=O (stereo not shown) [Compound 155]	
158	CCc1cc2ccc(C(C)(C#N)CCOc3ccc4oc(C)c(C)c4c3)cc2[nH]c1=O (stereo not shown) [Compound 162]	
200	CCc1cc2ccc(C(C)(C#N)CCOc3cccc4c3OCCO4)cc2[nH]c1=O (stereo not shown) [Compound 163]	
2510	CCc1cc2ccc(C(C)(C#N)CC#Cc3cccc(F)c3)cc2[nH]c1=O (stereo not shown) [Compound 184]	
316	CCc1cc2ccc([C@](C)(C#N)C[C@@H]3CCc4cc(C)ccc4O3)cc2[nH]c1=O [Compound 251]	
794	CCc1cc2ccc([C@@](C)(C#N)C[C@@H]3CCc4cc(C)ccc4O3)cc2[nH]c1=O [Compound 252]	
631	CCc1cc2ccc(C(C#N)(CC)C3CCc4ccc(F)cc43)cc2[nH]c1=O (stereo not shown) [Compound 391]	
